Data: patent US20070117743A1, “New antitumoral compounds” (priority 2003, published 2007)
Where a SMILES comes first, the peptide text is derived from it. Bridges are numbered along the chain shown (N, C = ends). [ ]: non-standard residue; d: D form. The star is where a group is joined. d(aIle) = CC[C@H](C)[C@@H](N)C(=O)O; d(aThr) = C[C@@H](O)[C@@H](N)C(=O)O; Hexanoyl(5-Me) = CC(C)CCCC(=O)*; Orn = NCCC[C@H](N)C(=O)O; Aib = CC(C)(N)C(=O)O

Columns and labels:
Assay type in all cases: cell-based, human
[1] = system: SK-BR-3; assay: SRB colorimetric assay of cell growth and viability, SK-BR-3; details: 48 hours exposure
[2] = system: IGROV-ET; assay: SRB colorimetric assay of cell growth and viability, IGROV-ET; details: 48 hours exposure
[3] = system: LoVo; assay: SRB colorimetric assay of cell growth and viability, LoVo; details: 48 hours exposure, SRB
[4] = system: DU-145; assay: SRB colorimetric assay of cell growth and viability, DU-145; details: 48 hours exposure
[5] = system: SK-MEL-28; assay: SRB colorimetric assay of cell growth and viability, SK-MEL-28; details: 48 hours exposure
[6] = system: A-549; assay: SRB colorimetric assay of cell growth and viability, A-549; details: 48 hours exposure, SRB
[7] = system: HT-29; assay: SRB colorimetric assay of cell growth and viability, HT-29; details: 48 hours exposure, SRB
[8] = system: LoVo-Dox; assay: SRB colorimetric assay of cell growth and viability, LoVo-Dox; details: 48 hours exposure, SRB
Summary of the method: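 Tumor cells are continuously exposed to sample for 48 hours, with vehicle DMSO:EtOH:PBS (0.5:0.5:99), after an 18-hour drug-free attachment period. Bound SRB, measured at 490 nm, reflects cell mass; GI, TGI and LC are derived from triplicate means.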

[9] = system: IGROV-1; assay: SRB colorimetric assay of cell growth and viability, IGROV-1; details: 48 hours exposure
[10] = system: K-562; assay: SRB colorimetric assay of cell growth and viability, K-562; details: 48 hours exposure, SRB
[11] = system: HeLa-APL; assay: SRB colorimetric assay of cell growth and viability, HeLa-APL; details: 48 hours exposure, SRB
[12] = system: LNCaP; assay: SRB colorimetric assay of cell growth and viability, LNCaP; details: 48 hours exposure
[13] = system: HeLa; assay: SRB colorimetric assay of cell growth and viability, HeLa; details: 48 hours exposure, SRB
[14] = system: PANC-1; assay: SRB colorimetric assay of cell growth and viability, PANC-1; details: 48 hours exposure, SRB

Compound: CC[C@H](C)[C@@H](NC(=O)[C@H](CCCN)NC(=O)[C@H]1CCCN1C(=O)[C@H](NC(=O)[C@@H](NC(=O)[C@@H](NC(=O)[C@H](NC(=O)CCCC(C)C)C(C)C)[C@@H](C)O)C(C)C)C(C)C)C(=O)N[C@H]1C(=O)N[C@H]([C@@H](C)CC)C(=O)N[C@H](C(C)C)C(=O)N[C@@H](Cc2ccccc2)C(=O)NC(C)(C)C(=O)N[C@@H](C(C)C)C(=O)O[C@@H]1C [Compound 66, [Aib^2]-KF] ({Hexanoyl(5-Me)}-[dV]TV[dV][dP][Orn][d(aIle)][d(aThr)][d(aIle)][dV]F[Aib]V; ester 8-C)
- GI50 [1]: 1.49 µM
- TGI SK-BR-3 [1]: 2.67E−06 Molar
- LC50 ([1]; SRB): 4.77 µM
- GI50 [2]: 1.21 µM
- TGI IGROV-ET [2]: 2.43E−06 Molar
- CC50 ([2]; SRB, read-out: LC50 IGROV-ET): 4.89 µM
- GI50 [3]: 1.3 µM
- TGI LOVO [3]: 2.47E−06 Molar
- CC50 ([3]; read-out: LC50 LOVO): 4.71 µM
- GI50 [4]: 1.36 µM
- TGI DU-145 [4]: 2.73E−06 Molar
- LC50 (concentration causing 50% net cell kill) ([4]; SRB): 5.45 µM
- GI50 [5]: 2.24 µM
- TGI MEL-28 [5]: 6.14E−06 Molar
- CC50 ([5]; SRB, read-out: LC50 MEL-28): ≥ 6.76 µM
- TGI A-549 [6]: 6.76E−06 Molar
- GI50 ([6]; read-out: GI50 A-549): 4.96 µM
- CC50 ([6]; read-out: LC50 A-549): ≥ 6.76 µM
- TGI HT-29 [7]: 2.54E−06 Molar
- GI50 ([7]; read-out: GI50 HT-29): 1.28 µM
- CC50 ([7]; read-out: LC50 HT-29): 5.06 µM
- GI50 [8]: 1.07 µM
- TGI LOVO-DOX [8]: 2.26E−06 Molar
- CC50 ([8]; read-out: LC50 LOVO-DOX): 4.8 µM
- GI50 [9]: 1.57 µM
- TGI IGROV [9]: 2.82E−06 Molar
- LC50 (concentration causing 50% net cell killing) ([9]; SRB): 5.05 µM
- GI50 [10]: ≥ 6.76 µM
- TGI K-562 [10]: 6.76E−06 Molar
- CC50 ([10]; read-out: LC50 K-562): ≥ 6.76 µM
- GI50 [11]: 3.41 µM
- TGI HELA-APL [11]: 6.76E−06 Molar
- CC50 ([11]; read-out: LC50 HELA-APL): ≥ 6.76 µM
- TGI LN-caP [12]: 6.76E−06 Molar
- CC50 ([12]; SRB, read-out: LC50 LN-caP): ≥ 6.76 µM
- GI50 ([12]; read-out: GI50 LN-caP): 4.63 µM
- GI50 [13]: 3.17 µM
- TGI HELA [13]: 6.76E−06 Molar
- CC50 ([13]; read-out: LC50 HELA): ≥ 6.76 µM
- GI50 [14]: ≥ 6.76 µM
- TGI PANC-1 [14]: 6.76E−06 Molar
- CC50 ([14]; read-out: LC50 PANC-1): ≥ 6.76 µM
